Entries after “also recorded” stand apart in the source; their conditions may differ.

Series [1] has as its system MlrA. In words: suspension of intact recombinant mlrA-HMBP-pET28a/BL21 in sterile water. The following applies: mlrA-HMBP-pET28a/BL21, 37 °C, up to 144 h.
The nature of series [2]: CEs from HMBP-pET28a/BL21 (negative control) in sterile water. The following applies: HMBP-pET28a/BL21, 37 °C, up to 12 h.
The nature of series [3]: natural microbial communities in sediments. The following applies: cited from earlier work.
Series [4] is described as follows: Strain m6 cells in MSM, pH 7, at 40 °C. The following applies: Sphingopyxis sp. m6, 40 °C, up to six days.
Series [5] is described as follows: Sphingomonas sp. B-9 cells. The following applies: cited from earlier work.
A short description of series [6]: suspension of HMBP-pET28a/BL21 (negative control) in sterile water. The following applies: HMBP-pET28a/BL21, 37 °C, up to 144 h.
Series [7] has as its system recombinant MlrA. In words: CEs (cell-free extracts) of recombinant mlrA-HMBP-pET28a/BL21 in sterile water. The following applies: mlrA-HMBP-pET28a/BL21, 37 °C, up to 48 h.
Series [8] in a line: Strain m6 cells resuspended in sterile MSM (mineral salt medium). The following applies: Sphingopyxis sp. m6, 30 °C, up to six days.

For D-MeAsp, L-Arg, Adda, D-Glu, and Mdhb, the cleaved bond result was “Arg-Adda, first_seen” in series [1]; “Arg-Adda, first_seen” in series [7]; “Arg-Adda, first_seen; also recorded: Adda-Glu; also recorded: Glu-Mdhb; also recorded: Mdhb-MeAsp” in series [8]. Further, the not cleaved result in series [2] was “remaining essentially unchanged”; in series [4], “the toxin concentration barely decreased”; in series [6], “remaining essentially unchanged”. Further, the fragment found result in series [3] is “linear NOD and Adda and H-Glu-Mdhb-MeAsp-Arg-OH and H-Adda-Glu-Mdhb-MeAsp-OH and H-Adda-Glu-Mdhb-MeAsp-Cit-OH”; in series [5], “linear NOD and Adda”.

The values above are taken from PMC8618024 (2021).
